Common to all, as to experiment: DTP human tumour cell line panel, 48 h
Test [1] concerns SNB-75.
Test [2] relates to HL-60.
Test [3] relates to HCC 2998.
In test [4] the test system is Malme-3M.
For test [5], the system named is ACHN.
The subject of test [6] is MDA-MB-231.
Test [7] concerns SR.
Test [8] has as its system Hs-578T.
Test [9] relates to HOP-92.
In test [10] the test system is COLO 205.
For test [11], the system named is SF-295.
Test [12] deals with K562.
Test [13] deals with EKVX.
In test [14] the test system is OVCAR-5.
Test [15] relates to SF-268.
Test [16] deals with M14.
Test [17] deals with UO-31.
In test [18] the test system is NCI-H23.
The subject of test [19] is OVCAR-3.
The test system of test [20] is NCI-H460.

SMILES strings stand for the structures.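 Five concentrations, 48 hours, 96-well plates. GI50 marks 50% less growth.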 The source made the active and inactive calls. No stated cut-off is given here; in the data, active = GI50 up to about 1.1 µM and inactive = higher.

Broadly, the GI50 is the concentration giving 50% growth inhibition. Consider `Cc1ccc(C(=O)Nc2ccc(CP(=O)(O)O)cc2CP(=O)(O)O)cc1N`, for which the GI50 in test [1], in test [2], in [3], in test [4], in test [5] and in test [6] was > 100 µM (inactive) throughout. For the same compound, the GI50 in test [7], in test [8], in test [9], in test [10], in [11] and in test [12] was > 100 µM (inactive) in each case. Further, the GI50 in test [13], in test [14], in [15], in [16], in test [17] and in test [18] was > 100 µM (inactive) each time. Moreover, in [19], the GI50 was > 100 µM (inactive).
Take `COc1ccc(C(C)NNC(=O)c2cc[n+]([BH2-]C#N)cc2)cc1OC` (stereo not drawn): the GI50 in test [1], in test [2], in [3], in [4], in test [5] and in test [6] was > 100 µM (inactive) each time. Further, the GI50 in test [7], in [8], in [9], in [10], in test [11] and in test [12] was > 100 µM (inactive) throughout. Further, the GI50 in test [13], in test [20], in [14], in test [15], in [16] and in test [17] was > 100 µM (inactive) throughout. The GI50 in test [18] and in [19] was > 100 µM (inactive) throughout.
In the case of `O=C(O)c1cc2ccccc2c(/N=N\c2cc(C(F)(F)F)ccc2Cl)c1O`, the GI50 is 0.0169 µM (active) in [1]; 21.8 µM (inactive) in test [2]; > 100 µM (inactive) in test [3]; 37.4 µM (inactive) in test [4]; 46.5 µM (inactive) in [5]; 18.3 µM (inactive) in test [6]. Moreover, the GI50 in [7] is 24.8 µM (inactive); in test [8], 37.6 µM (inactive); in test [9], 53.8 µM (inactive); in [10] it was 39.7 µM (inactive); in test [11], 47.6 µM (inactive); in test [12] it was 27 µM (inactive). The GI50 in [13] is 70 µM (inactive); in [20], 38.5 µM (inactive); in [14], > 100 µM (inactive); in [15], > 100 µM (inactive); in test [16] it was > 100 µM (inactive); in test [17] it was 33.4 µM (inactive). The values for the GI50 in [18] and in test [19] were 56.5 µM (inactive) and 22.5 µM (inactive), respectively.
Regarding `NC1=NCN(C2OC(CO)C(O)C2O)C(=O)N1` (stereo not drawn), the GI50 in [1] is 22.5 µM (inactive); in [2] it was 0.838 µM (active); in [3], 40.4 µM (inactive); in [4], 10.9 µM (inactive); in test [5], 0.802 µM (active); in [6], 38.5 µM (inactive). The GI50 in [7] was 4.49 µM (inactive); in [8], 23.4 µM (inactive); in test [9], 391 µM (inactive); in test [10], 131 µM (inactive); in [11], 43.4 µM (inactive); in [12], 2.28 µM (inactive). The GI50 is 509 µM (inactive) in test [13]; 5.48 µM (inactive) in test [20]; 183 µM (inactive) in test [14]; 15.1 µM (inactive) in [15]; 5.71 µM (inactive) in [16]; 145 µM (inactive) in test [17]. The GI50 in test [18] is > 88.3 µM (inactive); in [19], 38.6 µM (inactive).
On to `NCCN(CCN(C(=O)Nc1ccccc1)c1ccccc1)C(=O)Nc1ccccc1`, for which the GI50 in test [1] was 18.1 µM (inactive); in test [2], 18.9 µM (inactive); in [3], 19.8 µM (inactive); in [4], 17.1 µM (inactive); in [5], 20.5 µM (inactive); in test [6], 39.1 µM (inactive). In addition, the GI50 in test [7] is 27.6 µM (inactive); in [8], 19.2 µM (inactive); in [9], 17.4 µM (inactive); in test [10] it was 23 µM (inactive); in test [11] it was 18.5 µM (inactive); in test [12], 44.4 µM (inactive). Moreover, the GI50 in test [13] was 23.6 µM (inactive); in [20], 17.4 µM (inactive); in [14], 19 µM (inactive); in test [15], 18.6 µM (inactive); in test [16], 21.3 µM (inactive); in test [17], 15.3 µM (inactive). The GI50 in test [18] is 24.3 µM (inactive).
Take `O=C1NC(N2CCCC(CO)C2)=N/C1=C\c1ccc(Cl)cc1` (stereo not drawn): the GI50 in test [1] is 51.1 µM (inactive); in test [2] it was > 100 µM (inactive); in [3], 35.9 µM (inactive); in test [4] it was > 100 µM (inactive); in test [5] it was > 100 µM (inactive); in test [6] it was > 100 µM (inactive). Moreover, the GI50 in test [7] was > 100 µM (inactive); in test [8] it was > 100 µM (inactive); in [9], 90.8 µM (inactive); in test [10], > 100 µM (inactive); in test [11], > 100 µM (inactive); in test [12] it was > 100 µM (inactive). For the same compound, the GI50 is 49.1 µM (inactive) in [13]; > 100 µM (inactive) in test [14]; > 100 µM (inactive) in [15]; > 100 µM (inactive) in test [16]; 75 µM (inactive) in test [17]; > 100 µM (inactive) in [18]. Moreover, the GI50 in test [19] is > 100 µM (inactive).
For the compound `CN1CCN(C(=S)N(C(=O)c2ccc(Cl)cc2)c2ccccc2)CC1`, the GI50 in test [1] was 41.8 µM (inactive); in test [2], > 100 µM (inactive); in [3] it was > 100 µM (inactive); in test [4] it was > 100 µM (inactive); in test [5], > 100 µM (inactive); in [6], > 100 µM (inactive). The GI50 is > 100 µM (inactive) in test [7]; 34.5 µM (inactive) in [8]; > 100 µM (inactive) in [9]; > 100 µM (inactive) in test [10]; > 100 µM (inactive) in [11]; > 100 µM (inactive) in test [12]. Moreover, the GI50 in test [20], in test [14], in test [15], in test [16], in test [17] and in test [18] was > 100 µM (inactive) in each case. Besides, the GI50 in test [19] is > 100 µM (inactive).
For `O=C(NC1(C(=O)NNc2nnc(-c3ccccc3)c(-c3ccccc3)n2)C(c2ccccc2)C(c2ccccc2)=NN1c1ccccc1)c1ccccc1` (stereo not drawn), the GI50 was 55.8 µM (inactive) in test [1]; 46.8 µM (inactive) in test [2]; 63.4 µM (inactive) in test [3]; 64.1 µM (inactive) in test [4]; > 100 µM (inactive) in test [5]; > 100 µM (inactive) in test [6]. Besides, the GI50 in test [7] was > 100 µM (inactive); in test [8], > 100 µM (inactive); in [9], 73.1 µM (inactive); in test [10], > 100 µM (inactive); in test [11] it was > 100 µM (inactive); in [13] it was > 100 µM (inactive). The GI50 is > 100 µM (inactive) in [20]; > 100 µM (inactive) in [14]; > 100 µM (inactive) in [15]; > 100 µM (inactive) in test [16]; 41.4 µM (inactive) in test [17]; > 100 µM (inactive) in test [18]. Further, the GI50 in test [19] was > 100 µM (inactive).
With `COCCc1c(C)c(C#N)c2n(C)c3ccccc3n2c1=O`, the GI50 is > 10 µM (inactive) in test [1]; 0.00575 µM (active) in test [2]; > 10 µM (inactive) in [3]; > 10 µM (inactive) in test [4]; > 10 µM (inactive) in test [5]; > 10 µM (inactive) in test [6]. The GI50 in test [7] was > 10 µM (inactive); in test [8] it was > 10 µM (inactive); in [9], > 10 µM (inactive); in test [10], > 10 µM (inactive); in test [11] it was > 10 µM (inactive); in test [12], 0.566 µM (active). The GI50 in test [13], in test [20], in test [14], in [15], in test [16] and in test [18] was > 10 µM (inactive) throughout. Moreover, the GI50 in [19] is > 10 µM (inactive).
For `CCOc1ccccc1/N=N/C1C(=O)N(C(=O)CC(=O)Nc2ccccc2C)N=C1C` (stereo not drawn), the GI50 in [1] was 24.2 µM (inactive); in [2], > 100 µM (inactive); in [3], > 100 µM (inactive); in test [4], > 100 µM (inactive); in [5], > 100 µM (inactive); in [6] it was 37.8 µM (inactive). Further, the GI50 is > 100 µM (inactive) in test [7]; 6.55 µM (inactive) in test [8]; 17.1 µM (inactive) in test [9]; > 100 µM (inactive) in [10]; 15.9 µM (inactive) in test [11]; 0.984 µM (active) in test [13]. The GI50 in test [20] was 43.7 µM (inactive); in [14], > 100 µM (inactive); in [15] it was 19.6 µM (inactive); in [16] it was > 100 µM (inactive); in test [17], 27.2 µM (inactive); in test [18] it was 59.7 µM (inactive). For the same compound, the GI50 in test [19] was 87.9 µM (inactive).

(Values after ChEMBL document CHEMBL1201862, “PubChem BioAssay data set” (2004).)
